Like-named read-outs stand apart in the source and are kept apart here. Bounds are passed on as bounds.

In one test the test system is 3D7 P. falciparum strain. In words: parasite proliferation assay in infected red blood cells (SYBR Green I). It is filed as cell-based, Plasmodium falciparum. To be noted: 3D7 strain, read-out: EC50 3D7 strain. Put shortly:
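P. falciparum 3D7 grown in O+ human erythrocytes to 3–8% parasitemia and exposed to compounds. Proliferation read as the increase in parasite DNA. Detection used SYBR Green I in saponin/triton-X/EDTA lysis buffer, with overnight lysis at room temperature.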

Another test has as its system W2 strain. Description: parasite proliferation assay in infected red blood cells (SYBR Green I), W2 strain. It is filed as cell-based. The source says: Compounds of the invention can be assayed to measure their capacity to inhibit proliferation of parasitemia in infected red blood cells. The proliferation is quantified by the addition of SYBR Green I (INVITROGEN)® dye which has a high affinity for double stranded DNA.

Setting [1] is: Plasmodium falciparum, 3D7, Erythrocyte.
Where [2] appears, read: Plasmodium falciparum, Erythrocyte.

Consider `Cc1ccc(Cc2c(-c3ccc(F)cc3)nc3n2CCN(C(=O)CN)C3(C)C)cc1` [Compound 694], for which the EC50 – broadly, the concentration that produces a half-maximal response – in the test on 3D7 P. falciparum strain (setting [1]) stood at 11 nM; in the test with W2 strain (setting [2]), 7 nM.

Turning to `Cc1ccc(Nc2c(-c3ccc(F)cc3)nc3n2CCN(C(=O)C(O)c2ccccc2Cl)C3)cc1` (centres unmarked) [Compound 131], the EC50 with 3D7 P. falciparum strain (setting [1]) is 40 nM; in the test with W2 strain (Erythrocyte) it was 30 nM.

For `Cc1cc(Nc2c(-c3ccc(F)cc3)nc3n2CCN(C(=O)CN)C3(C)C)ccc1Cl` [Compound 659], the EC50 in the test with 3D7 P. falciparum strain (setting [1]) is 4390 nM; with W2 strain (setting [2]), 5280 nM.

As for `Cc1cccc(Nc2c(-c3ccc(F)cc3)nc3n2CCN(C(=O)C(C)(C)N)C3)c1` [Compound 638], the EC50 in the test on 3D7 P. falciparum strain (setting [1]) was 65 nM; in the test with W2 strain (setting [2]), 68 nM.

For `NCC(=O)N1CCn2c(nc(-c3ccc(F)cc3)c2Nc2ccc(F)cc2)C1` [Compound 4], the results for the EC50 in the test with 3D7 P. falciparum strain (setting [1]) and in the test with W2 strain (Erythrocyte) were 20 nM and 23 nM, respectively.

As to `Cc1ccc(Nc2c(-c3ccc(F)cc3)nc3n2CCN(C(=O)N2CCC(N4CCCC(C)C4)CC2)C3)cc1` (centres unmarked) [Compound 273], the EC50 in the test with 3D7 P. falciparum strain (setting [1]) stood at 3330 nM; in the test with W2 strain (Erythrocyte) it was 3470 nM.

Regarding `COc1ccc(NC(C)(C)C(=O)N2CCn3c(nc(-c4ccc(F)cc4)c3Nc3ccc(C)cc3)C2)cc1` [Compound 364], the EC50 in the test on 3D7 P. falciparum strain (setting [1]) came out at 4950 nM; in the test on W2 strain (Erythrocyte) it was 3740 nM.

In the case of `CCCCCNc1ccc(C[C@H](NC(=O)OC(C)(C)C)C(=O)N2CCn3c(nc(-c4ccc(F)cc4)c3Nc3ccc(C)cc3)C2)cc1` [Compound 267, (S)-tert-butyl 1-(2-(4-fluorophenyl)-3-(p-tolylamino)-5,6-dihydroimidazo[1,2-a]pyrazin-7 (8H)-yl)-1-oxo-3-(4-(pentylamino)phenyl)propan-2-ylcarbamate], the EC50 in the test with 3D7 P. falciparum strain (setting [1]) was 990 nM; in the test on W2 strain (Erythrocyte) it was 474 nM.

With `CCC(=O)Nc1ccc(C[C@H](NC(=O)OC(C)(C)C)C(=O)N2CCn3c(nc(-c4ccc(F)cc4)c3Nc3ccc(C)cc3)C2)cc1` [Compound 185], the EC50 is 350 nM in the test with 3D7 P. falciparum strain (setting [1]) and 136 nM in the test with W2 strain (Erythrocyte).

Take `Cc1ccc(Nc2c(-c3ccc(F)c(F)c3)nc3n2CCN(C(=O)C(C)(C)N)C3)cc1` [Compound 379]: the EC50 in the test on 3D7 P. falciparum strain (setting [1]) turned out to be 60 nM; in the test with W2 strain (Erythrocyte), 50 nM.

With `CCCNCC(=O)N1CCn2c(nc(-c3ccc(F)cc3)c2Nc2ccc(C)cc2)C1` [Compound 307], the EC50 in the test with 3D7 P. falciparum strain (setting [1]) was 30 nM; with W2 strain (Erythrocyte), 22 nM.

`N[C@@H](Cc1ccc(F)cc1)C(=O)N1CCn2c(nc(-c3ccc(F)cc3)c2Nc2ccc(Cl)c(F)c2)C1` [Compound 316]: the EC50 with 3D7 P. falciparum strain (setting [1]) stood at 20 nM; in the test on W2 strain (Erythrocyte), 14 nM.

With `Cc1ccc(Nc2c(-c3ccc(F)cc3)nc3n2CCN(C(=O)C2(O)CCCC2)C3)cc1` [Compound 116], the EC50 amounted to 1640 nM in the test with 3D7 P. falciparum strain (setting [1]) and 1510 nM with W2 strain (Erythrocyte).

In the case of `Cc1ccc(Nc2c(-c3ccc(F)cc3)nc3n2CCN(C(=O)CNC(=N)N)C3)cc1` [Compound 167], the values for the EC50 in the test with 3D7 P. falciparum strain (setting [1]) and in the test on W2 strain (Erythrocyte) were 180 nM and 145 nM, respectively.

On to `CC(C)(N)C(=O)N1CCn2c(nc(-c3ccc(F)cc3)c2Nc2cccc(F)c2)C1` [Compound 35], for which the EC50 with 3D7 P. falciparum strain (setting [1]) came to 120 nM; with W2 strain (Erythrocyte) it was 105 nM.

Regarding `Cc1ccc(Nc2c(-c3ccc(F)cc3)nc3n2CCN(C(=O)C(C)c2ccc(Cl)cc2)C3)cc1` (centres unmarked) [Compound 173], the EC50 worked out at 140 nM in the test with 3D7 P. falciparum strain (setting [1]) and 133 nM in the test with W2 strain (Erythrocyte).

In the case of `CCC(=O)OC(C(=O)N1CCn2c(nc(-c3ccc(F)cc3)c2Nc2ccc(C)cc2)C1)c1ccccc1` (centres unmarked) [Compound 268], the figures for the EC50 in the test on 3D7 P. falciparum strain (setting [1]) and in the test with W2 strain (Erythrocyte) were 10 nM and 12 nM, respectively.

As to `CC(C)(N)C(=O)N1CCn2c(nc(-c3ccc(F)cc3)c2Nc2ccc3c(c2)OCO3)C1` [Compound 5], the EC50 in the test on 3D7 P. falciparum strain (setting [1]) is 4330 nM; in the test on W2 strain (Erythrocyte), over 8900 nM.

As to `Cc1ccc(Nc2c(-c3ccc(F)cc3)nc3n2CCN(C(=O)[C@@H](N)c2ccccc2)C3)cc1` [Compound 98], the EC50 in the test with 3D7 P. falciparum strain (setting [1]) is 10 nM; with W2 strain (Erythrocyte) it was 8 nM.

On to `O=C(CN1CCCC1)N1CCn2c(nc(-c3ccc(F)cc3)c2Nc2ccc(F)cc2)C1` [Compound 33], for which the EC50 with 3D7 P. falciparum strain (setting [1]) turned out to be 740 nM; with W2 strain (Erythrocyte), 1620 nM.

For the compound `Cc1cc(Nc2c(-c3cccc(F)c3)nc3n2C(C)(C)CN(C(=O)CN)C3)ccc1Cl` [Compound 626], the EC50 in the test on 3D7 P. falciparum strain (setting [1]) came out at 20 nM; in the test on W2 strain (setting [2]) it was 17 nM.

Regarding `Cc1ccc2nc(-c3ccc(F)cc3)c(Nc3ccc(Cl)c(F)c3)n2c1` [Compound 752], the EC50 in the test on 3D7 P. falciparum strain (setting [1]) was 1620 nM; in the test with W2 strain (setting [2]), 2380 nM.

Regarding `Cc1ccc(Nc2c(-c3ccc(F)cc3)nc3n2CCN(C(=O)CNCc2ccccc2)C3)cc1` [Compound 146], the EC50 in the test with 3D7 P. falciparum strain (setting [1]) is 20 nM; in the test on W2 strain (Erythrocyte), 14 nM.

As to `O=C(CN1CCCC(C(F)(F)F)C1)N1CCn2c(nc(-c3ccc(F)cc3)c2Nc2ccc(F)cc2)C1` (centres unmarked) [Compound 63], the EC50 in the test on 3D7 P. falciparum strain (setting [1]) came out at 1950 nM; with W2 strain (Erythrocyte) it was 1610 nM.

As to `CC(C)(N)C(=O)N1CCn2c(nc(-c3ccc(F)cc3)c2Nc2ccc(C#N)cc2)C1` [Compound 263], the figures for the EC50 with 3D7 P. falciparum strain (setting [1]) and with W2 strain (Erythrocyte) were 350 nM and 653 nM, respectively.

For the compound `CC(C)(N)C(=O)N1CCn2c(nc(-c3ccc(F)cc3)c2Nc2ccc(F)c(C#N)c2)C1` [Compound 636], the EC50 in the test on 3D7 P. falciparum strain (setting [1]) is 210 nM; with W2 strain (setting [2]), 183 nM.

For the compound `Cc1ccc(Nc2c(-c3ccc(F)cc3)nc3n2CC(C)NC3)cc1` (centres unmarked) [Compound 329], the EC50 in the test on 3D7 P. falciparum strain (setting [1]) was 150 nM; in the test with W2 strain (Erythrocyte), 116 nM.

`Cc1ccc(Nc2c(-c3cccc(Cl)c3)nc3n2CCN(C(=O)C(C)(C)N)C3)cc1` [Compound 397]: the figures for the EC50 with 3D7 P. falciparum strain (setting [1]) and in the test on W2 strain (Erythrocyte) were 2450 nM and 1670 nM, respectively.

As for `CC(C)[C@H](N)C(=O)N1CCn2c(nc(-c3ccc(F)cc3)c2Nc2ccc(Cl)c(F)c2)C1` [Compound 313], the EC50 with 3D7 P. falciparum strain (setting [1]) came out at 20 nM; in the test with W2 strain (Erythrocyte), 4 nM.

On to `O=C(CN1CCCC(O)C1)N1CCn2c(nc(-c3ccc(F)cc3)c2Nc2ccc(F)cc2)C1` (centres unmarked) [Compound 64], for which the EC50 was found to be 9370 nM in the test on 3D7 P. falciparum strain (setting [1]) and 6460 nM in the test on W2 strain (Erythrocyte).

Consider `CC[C@H](N)C(=O)N1CCn2c(nc(-c3ccc(F)cc3)c2Nc2ccc(C)cc2)C1` [Compound 85], for which the EC50 in the test on 3D7 P. falciparum strain (setting [1]) worked out at 20 nM; in the test on W2 strain (Erythrocyte), 31 nM.

For the compound `CC1(C)N=C2c3nc(-c4ccc(F)cc4)c(Nc4ccc(F)c(F)c4)n3CCN2C1=O` [Compound 645, 8-(3,4-difluorophenylamino)-9-(4-fluorophenyl)-2,2-dimethyl-5,6-dihydrodiimidazo[1,2-a:2′,1′-c]pyrazin-3 (2H)-one], the EC50 amounted to 5130 nM in the test on 3D7 P. falciparum strain (setting [1]) and 7600 nM in the test with W2 strain (setting [2]).

For `Cc1ccc(Nc2c(-c3ccc(F)cc3)nc3n2CCN(C(=O)Cc2ccncc2)C3)cc1` [Compound 227], the EC50 in the test on 3D7 P. falciparum strain (setting [1]) amounted to 90 nM; with W2 strain (Erythrocyte) it was 103 nM.

As to `Cc1ccc(Nc2c(-c3ccc(F)cc3)nc3n2CCN(C(=O)C2CCNC2)C3)cc1` (centres unmarked) [Compound 95], the EC50 was 1540 nM in the test with 3D7 P. falciparum strain and 707 nM with W2 strain.

As to `CN1CCN(Cc2c(-c3ccc(F)cc3)nc3n2CCN(C(=O)CN)C3(C)C)CC1` [Compound 698], the values for the EC50 in the test on 3D7 P. falciparum strain (setting [1]) and in the test with W2 strain (setting [2]) were 8810 nM and 9020 nM, respectively.

`CC(C)(N)C(=O)N1CCn2c(nc(-c3ccc(F)cc3)c2-c2ccc(F)cc2)C1` [Compound 31]: the EC50 with 3D7 P. falciparum strain (setting [1]) turned out to be 13100 nM; with W2 strain (Erythrocyte), 6890 nM.

As for `Cc1ccc(Nc2c(-c3ccc(F)cc3)nc3n2CCN(C(=O)[C@@H]2CCCN2)C3)cc1` [Compound 90], the EC50 came out at 650 nM with 3D7 P. falciparum strain (setting [1]) and 600 nM in the test with W2 strain (Erythrocyte).

The values above are taken from patent publication US9469645B2, “Compounds and compositions for the treatment of parasitic diseases” (Novartis AG, priority 2009, dated 2016).
